Reference: patent publication US20240238423A9, “TETRAHYDROISOQUINOLINE HETEROBIFUNCTIONAL BCL-XL DEGRADERS” (Treeline Biosciences, Inc., priority 2022, published 2024)
Where two headings read alike, the source gives them in different places.

Target: T1, Human BCL-XL protein (N-terminal HiBiT tagged BCL-XL in HT1080 cells) (Homo sapiens, UniProt Q07817)
T1 construct: expressed in transfected cells; host or cells: HT-1080 (ATCC CCL-121), stably transduced with lentivirus pLV-UBC-N-HiBiT-BCL-XL-PGK-puro and selected with puromycin
T1 sequence (Q07817 whole entry): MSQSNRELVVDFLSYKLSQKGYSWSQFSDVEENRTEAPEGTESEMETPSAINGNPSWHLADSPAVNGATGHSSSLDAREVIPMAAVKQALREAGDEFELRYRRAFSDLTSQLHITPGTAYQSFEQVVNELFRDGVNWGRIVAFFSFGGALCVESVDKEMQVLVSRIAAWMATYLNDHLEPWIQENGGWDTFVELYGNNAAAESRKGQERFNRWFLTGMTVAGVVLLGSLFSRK
Assay: HiBiT based degradation assay
Assay type: cell-based
Conditions: HT1080 cells expressing HiBiT-BCL-XL; for Ymin (6 h) / Ymin (24 h): BCL-XL degradation normalized with DMSO control; for DC50: BCL-XL degradation
How it was run: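 This HiBiT degradation assay measured loss of BCL-XL in HT1080 cells that stably express an N-terminal HiBiT-BCL-XL fusion delivered by lentivirus. Cells were added to compound-spotted 384-well plates, and luminescence was read on a PHERAstar FSX reader. Signal was expressed relative to DMSO controls, curves were fitted by four-parameter logistic regression, and for hook-shaped curves the Ymin point served as the bottom plateau when calculating EC50.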

| SMILES | Ymin (6 h) | DC50 (6 h, read-out: EC50 (6 h)) [nM] | Ymin (24 h) | DC50 (24 h, read-out: EC50 (24 h)) [nM] |
| --- | --- | --- | --- | --- |
| Cc1c(-c2ccc(N3CCc4cccc(C(=O)Nc5nc6ccccc6s5)c4C3)nc2C(=O)NCCCCCC(=O)Nc2ccc3c(C4CCC(=O)NC4=O)nn(C)c3c2)cnn1CC12CC3CC(CC(C3)C1)C2 (stereo not shown) [Compound 111, 2-(5-(1-(((3r,5r,7r)-adamantan-1-yl)methyl)-5-methyl-1H-pyrazol-4-yl)-6-((6-((3-(2,6-dioxopiperidin-3-yl)-1-methyl-1H-indazol-6-yl)amino)-6-oxohexyl)carbamoyl)pyridin-2-yl)-N-(benzo[d]thiazol-2-yl)-1,2,3,4-tetrahydroisoquinoline-8-carboxamide] | B (50% ≤ Ymin < 70%) | < 100 | – | – |
| Cc1c(-c2ccc(N3CCc4cccc(C(=O)Nc5nc6ccccc6s5)c4C3)nc2C(=O)NCCCCCCCCCC(=O)Nc2ccc3c(C4CCC(=O)NC4=O)nn(C)c3c2)cnn1CC12CC3CC(CC(C3)C1)C2 (stereo not shown) [Compound 112, 2-[5-[1-(1-adamantylmethyl)-5-methyl-pyrazol-4-yl]-6-[[10-[[3-(2,6-dioxo-3-piperidyl)-1-methyl-indazol-6-yl]amino]-10-oxo-decyl]carbamoyl]-2-pyridyl]-N-(1,3-benzothiazol-2-yl)-3,4-dihydro-1H-isoquinoline-8-carboxamide] | B (50% ≤ Ymin < 70%) | < 100 | – | – |
| Cc1c(-c2ccc(N3CCc4cccc(C(=O)Nc5nc6ccccc6s5)c4C3)nc2C(=O)NCCCCCCCCCCCC(=O)Nc2ccc3c(C4CCC(=O)NC4=O)nn(C)c3c2)cnn1CC12CC3CC(CC(C3)C1)C2 (stereo not shown) [Compound 113, 2-(5-(1-((3r,5r,7r)-adamantan-1-ylmethyl)-5-methyl-1H-pyrazol-4-yl)-6-((12-((3-(2,6-dioxopiperidin-3-yl)-1-methyl-1H-indazol-6-yl)amino)-12-oxododecyl)carbamoyl)pyridin-2-yl)-N-(benzo[d]thiazol-2-yl)-1,2,3,4-tetrahydroisoquinoline-8-carboxamide] | B (50% ≤ Ymin < 70%) | 100 to 1000 | – | – |
| Cc1c(-c2ccc(N3CCc4cccc(C(=O)Nc5nc6ccccc6s5)c4C3)nc2C(=O)NCCCCCCCC(=O)Nc2cccc3c(C4CCC(=O)NC4=O)nn(C)c23)cnn1CC12CC3CC(CC(C3)C1)C2 (stereo not shown) [Compound 114, 2-[5-[1-(1-adamantylmethyl)-5-methyl-pyrazol-4-yl]-6-[[8-[[3-(2,6-dioxo-3-piperidyl)-1-methyl-indazol-7-yl]amino]-8-oxo-octyl]carbamoyl]-2-pyridyl]-N-(1,3-benzothiazol-2-yl)-3,4-dihydro-1H-isoquinoline-8-carboxamide] | A (Ymin < 50%) | < 100 | – | – |
| Cc1c(-c2ccc(N3CCc4cccc(C(=O)Nc5nc6ccccc6s5)c4C3)nc2C(=O)NCC(=O)Nc2ccc3c(C4CCC(=O)NC4=O)nn(C)c3c2)cnn1CC12CC3CC(CC(C3)C1)C2 [Compound 115, 2-(5-(1-((1R,3S)-adamantan-1-ylmethyl)-5-methyl-1H-pyrazol-4-yl)-6-((2-((3-(2,6-dioxopiperidin-3-yl)-1-methyl-1H-indazol-6-yl)amino)-2-oxoethyl)carbamoyl)pyridin-2-yl)-N-(benzo[d]thiazol-2-yl)-1,2,3,4-tetrahydroisoquinoline-8-carboxamide] | B (50% ≤ Ymin < 70%) | < 100 | – | – |
| Cc1cc(OCCCN2CCN(CC(=O)Nc3ccc4c(C5CCC(=O)NC5=O)nn(C)c4c3)CC2)ccc1-c1ccc(N2CCc3cccc(C(=O)Nc4nc5ccccc5s4)c3C2)nc1C(=O)O (stereo not shown) [Compound 119, 6-[8-(1,3-benzothiazol-2-ylcarbamoyl)-3,4-dihydro-1H-isoquinolin-2-yl]-3-[4-[3-[4-[2-[[3-(2,6-dioxo-3-piperidyl)-1-methyl-indazol-6-yl]amino]-2-oxo-ethyl]piperazin-1-yl]propoxy]-2-methyl-phenyl]pyridine-2-carboxylic acid] | A (Ymin < 50%) | < 100 | A (Ymin < 50%) | < 100 |
| Cc1c(OCCCC2CCN(CC(=O)Nc3ccc4c(C5CCC(=O)NC5=O)nn(C)c4c3)CC2)cccc1-c1ccc(N2CCc3cccc(C(=O)Nc4nc5ccccc5s4)c3C2)nc1C(=O)O (stereo not shown) [Compound 121, 6-(8-(Benzo[d]thiazol-2-ylcarbamoyl)-3,4-dihydroisoquinolin-2(1H)-yl)-3-(3-(3-(1-(2-((3-(2,6-dioxopiperidin-3-yl)-1-methyl-1H-indazol-6-yl)amino)-2-oxoethyl)piperidin-4-yl)propoxy)-2-methylphenyl)picolinic acid] | A (Ymin < 50%) | < 100 | A (Ymin < 50%) | < 100 |

Continued, values first:

| Ymin (6 h) | DC50 (6 h, read-out: EC50 (6 h)) [nM] | Ymin (24 h) | DC50 (24 h, read-out: EC50 (24 h)) [nM] | SMILES |
| --- | --- | --- | --- | --- |
| A (Ymin < 50%) | < 100 | A (Ymin < 50%) | < 100 | Cc1c(OCCCN2C[C@@H](C)N(CC(=O)Nc3ccc4c(C5CCC(=O)NC5=O)nn(C)c4c3)[C@@H](C)C2)cccc1-c1ccc(N2CCc3cccc(C(=O)Nc4nc5ccccc5s4)c3C2)nc1C(=O)O (stereo partly drawn) [Compound 116a, 6-[8-(1,3-benzothiazol-2-ylcarbamoyl)-3,4-dihydro-1H-isoquinolin-2-yl]-3-[3-[3-[(3S,5R)-4-[2-[[3-(2,6-dioxo-3-piperidyl)-1-methyl-indazol-6-yl]amino]-2-oxo-ethyl]-3,5-dimethyl-piperazin-1-yl]propoxy]-2-methyl-phenyl]pyridine-2-carboxylic acid] |
| B (50% ≤ Ymin < 70%) | < 100 | B (50% ≤ Ymin < 70%) | < 100 | Cc1c(OCCCN2C[C@@H](C)N(CC(=O)Nc3cccc4c(C5CCC(=O)NC5=O)nn(C)c34)[C@@H](C)C2)cccc1-c1ccc(N2CCc3cccc(C(=O)Nc4nc5ccccc5s4)c3C2)nc1C(=O)O (stereo partly drawn) [Compound 117a, 6-[8-(1,3-benzothiazol-2-ylcarbamoyl)-3,4-dihydro-1H-isoquinolin-2-yl]-3-[3-[3-[(3S,5R)-4-[2-[[3-(2,6-dioxo-3-piperidyl)-1-methyl-indazol-7-yl]amino]-2-oxo-ethyl]-3,5-dimethyl-piperazin-1-yl]propoxy]-2-methyl-phenyl]pyridine-2-carboxylic acid] |
| B (50% ≤ Ymin < 70%) | 100 to 1000 | B (50% ≤ Ymin < 70%) | 1000 to 10000 | Cc1c(OCCOc2ccc(CC(=O)Nc3cccc4c(C5CCC(=O)NC5=O)nn(C)c34)cc2)cccc1-c1ccc(N2CCc3cccc(C(=O)Nc4nc5ccccc5s4)c3C2)nc1C(=O)O (stereo not shown) [Compound 118, 6-[8-(1,3-benzothiazol-2-ylcarbamoyl)-3,4-dihydro-1H-isoquinolin-2-yl]-3-[3-[2-[4-[2-[[3-(2,6-dioxo-3-piperidyl)-1-methyl-indazol-7-yl]amino]-2-oxo-ethyl]phenoxy]ethoxy]-2-methyl-phenyl]pyridine-2-carboxylic acid] |
| B (50% ≤ Ymin < 70%) | < 100 | B (50% ≤ Ymin < 70%) | < 100 | Cc1c(OCCCN2CCC(CC(=O)Nc3ccc4c(C5CCC(=O)NC5=O)nn(C)c4c3)CC2)cccc1-c1ccc(N2CCc3cccc(C(=O)Nc4nc5ccccc5s4)c3C2)nc1C(=O)O (stereo not shown) [Compound 120, 6-[8-(1,3-benzothiazol-2-ylcarbamoyl)-3,4-dihydro-1H-isoquinolin-2-yl]-3-[3-[3-[4-[2-[[3-(2,6-dioxo-3-piperidyl)-1-methyl-indazol-6-yl]amino]-2-oxo-ethyl]-1-piperidyl]propoxy]-2-methyl-phenyl]pyridine-2-carboxylic acid] |
